# Experimental data published in the NIST ThermoML archive (doi:10.1016/j.fluid.2005.11.026).
# Where “and” joins values, the source holds several entries; their conditions need not be identical. Identical values can stand only once. Numbers after ± are expanded uncertainties.
# Settings: 313.15 K; Liquid; Closed cell (Static) method
row,Compound,vapor or sublimation pressure
1,Cc1ccccc1 [toluene],7.881 ± 0.041 kPa and 7.888 ± 0.041 kPa and 7.889 ± 0.041 kPa
2,C1CCCCC1 [cyclohexane],24.62 ± 0.096 kPa
